# US12497408B2, “Tetracyclic compounds and methods for the treatment of Zika virus infection” (priority 2021, dated 2025)
# Test system: ZIKV
# Assay: ZIKV reporter virus-based antiviral screening on Huh7 cells
# Assay type: cell-based, Zika virus
# Settings: Huh7 cells infected with recombinant luciferase reporter ZIKV (MOI about 0.1), 48 hrs, luciferase signal; read-out: EC50
# Text: Protocol for ZIKV reporter virus-based antiviral screening on Huh7 cells:
# • Human hepatocyte-derived carcinoma cell line (Huh7) 2. Reagents • ViviRen™ Live Cell Substrate (Promega, Cat #E6492) or Nano Glo assay system (Promega: N1130) • White opaque 96-well TC-treated microplates (Corning, Cat #3916) • 96-well Clear V-Bottom TC-treated Microplate (Corning, Cat #3894) • Complete cell culture media: DMEM (Gibco, Cat #10569) supplemented with 10% FBS (HyClone, Cat #SH30071.03IH25-40)+1% MEM Non-Essential Amino Acids Solution 100×(Gibco, Cat #11140050)+1% Penicillin-Streptomycin (10,000 U/mL) (Gibco, Cat #15140122). • Assay media: DMEM media (Gibco, Cat #31053028) supplemented with 2% FBS, 2% GlutaMAX™ Supplement (Gibco Cat #35050061), 1% Sodium Pyruvate solution (Gibco, Cat #11360070), 1% MEM Non-Essential Amino Acids Solution 100× and 1% Penicillin-Streptomycin (10,000 U/mL). • Trypsin-EDTA solution (Gibco, Cat #25200056) 3. Virus • Recombinant ZIKV strain with Renilla luciferase gene (strain FSS-Rlu) or Nano luciferase gene (Strain PRV-Nano, Dakar-Nano) 4. Instruments • BioTek Cytation 5 or other plate-readers for chemiluminescence detection model. • Eppendorf plate centrifuge • Plate shaker • Eppendorf multichannel pipettes Procedures Day 1: Preparation of Cells • Human hepatocyte-derived carcinoma cell line (Huh7) cells were detached from a T-175 flask by using a Trypsin-EDTA solution. The detached cells were suspended in complete culture media in a sterile 50-ml conical tube. • The 50-ml conical tube was centrifuged at 1200×rpm for 3 min at room temperature. • The cells were resuspended in assay media. The cell numbers were counted, and the cells diluted to a density of 3×10^5 cells/ml. • The cells were plated at 50 μl cells per well in White opaque 96-well plates (assay plates). Gently shake the plates to ensure cells to attach to the plate evenly. • The plated cells were incubated in a humidified incubator (37° C. with 5% CO2). Day 2: Infection • 1) Nine serial (2-fold or 3-fold) concentrated compounds were prepared using 90% DMSO solution and DMSO controls in a clear V-bottom 96-well plate (compound plate). • For example:
# • 2) The reporter virus stock was diluted to a concentration of 3×10^4 FFU (FFU: focus-forming unit)/ml using the assay media. 200 μl diluted virus per well was aliquoted into a clear V-bottom 96-well plate (mixing plate). • 3) 1 μl above 400×concentrated compound dilutions was added from the compound plate to each well of the mixing plate. The plates were shaken on a plate shaker for 5 min. • 4) 50 μl compound-virus mixture was added into each well of the assay plates (the MOI is about 0.1). The plates were shaken gently by mixing the virus evenly. • An example of the format for assay plate:
# • control. • 5) The plates were centrifuged at 1000 rpm for 15 s. • 6) The plates were incubated at 37° C. with 5% CO2 in a humidified incubator for 48 hrs. Day 4: Read Luciferase Signals • 7) The ViviRen™ Live Cell Substrate was diluted in assay media for 3000× folds. 25 μl of diluted substrates was added into each well of the assay plates. • For Nano-Glo assay system, 50 μl diluted substrates (50×fold diluted from the stock in assay buffer) were added. • 8) The plates were incubated at room temperature for 5 min. • 9) Optimally, cell viability is measured using the Promega Cell-titer Glo kit (only used when ZIKV-Rlu was used for infection). • 10) Luciferase signals were read using the Cytation 5 with gain value of 120-150. Data Analysis • a. The luciferase signals from DMSO-treated groups (un-treated controls) were set as 100%. The relative luciferase signals were obtained by normalizing the luciferase signals from each dilution-treated group to that of the controls. • b.
row,Compound,EC50 [nM]
1,"COC(=O)N[C@H](C(=O)N1[C@@H](C)CC[C@H]1c1nc(Cl)c(-c2cc3c4c(c2)OCc2cc(-c5[nH]c([C@@H]6CC[C@H](C)N6C(=O)[C@@H](NC(=O)OC)C(C)(C)C(F)(F)F)nc5Cl)cc(c2-4)OC3)[nH]1)C(C)(C)C(F)(F)F [Compound 34, dimethyl ((2S,2′S)-((2S,2′S,5S,5′S)-((5,10-dihydrochromeno[5,4,3-cde]chromene-2,7-diyl)bis(4-chloro-1H-imidazole-5,2-diyl))bis(2-methylpyrrolidine-5,1-diyl))bis(4,4,4-trifluoro-3,3-dimethyl-1-oxobutane-l,2-diyl))dicarbamate]",2.6

# Same assay, conditions: Zika virus, Huh-7, 48 h, Huh7 cells infected with recombinant luciferase reporter ZIKV (MOI about 0.1), luciferase signal
row,Compound,EC50 [nM]
1,"COC(=O)N[C@H](C(=O)N1C[C@@H](OC)C[C@H]1c1nc(Cl)c(-c2cc3c4c(c2)OCc2cc(-c5[nH]c([C@@H]6C[C@H](OC)CN6C(=O)[C@@H](NC(=O)OC)C(C)(C)C(F)(F)F)nc5Cl)cc(c2-4)OC3)[nH]1)C(C)(C)C(F)(F)F [Compound 6, dimethyl ((2S,2′S)-((3S,3′S,5S,5′S)-((5,10-dihydrochromeno[5,4,3-cde]chromene-2,7-diyl)bis(4-chloro-1H-imidazole-5,2-diyl))bis(3-methoxypyrrolidine-5,1-diyl))bis(4,4,4-trifluoro-3,3-dimethyl-1-oxobutane-1,2-diyl))dicarbamate]",4.9
2,"COC(=O)N[C@H](C(=O)N1C[C@H](F)C[C@H]1c1nc(Cl)c(-c2cc3c4c(c2)OCc2cc(-c5[nH]c([C@@H]6C[C@@H](F)CN6C(=O)[C@@H](NC(=O)OC)C(C)C)nc5Cl)cc(c2-4)OC3)[nH]1)C(C)C [Compound 53, dimethyl ((2S,2′S)-((3R,3′R,5S,5′S)-((5,10-dihydrochromeno[5,4,3-cde]chromene-2,7-diyl)bis(4-chloro-1H-imidazole-5,2-diyl))bis(3-fluoropyrrolidine-5,1-diyl))bis(3-methyl-1-oxobutane-1,2-diyl))dicarbamate]",7.3
3,"COC(=O)N[C@H](C(=O)N1[C@@H](C)CC[C@H]1c1nc(C(C)C)c(-c2cc3c4c(c2)OCc2cc(-c5[nH]c([C@@H]6CC[C@H](C)N6C(=O)[C@@H](NC(=O)OC)C(C)(C)C(F)(F)F)nc5C(C)C)cc(c2-4)OC3)[nH]1)C(C)(C)C(F)(F)F [Compound 42, dimethyl ((2S,2′S)-((2S,2′S,5S,5′S)-((5,10-dihydrochromeno[5,4,3-cde]chromene-2,7-diyl)bis(4-isopropyl-1H-imidazole-5,2-diyl))bis(2-methylpyrrolidine-5,1-diyl))bis(4,4,4-trifluoro-3,3-dimethyl-1-oxobutane-1,2-diyl))dicarbamate]",1.9
4,"CCCc1nc([C@@H]2CCCN2C(=O)[C@@H](NC(=O)OC)C(C)C)[nH]c1-c1cc2c3c(c1)OCc1cc(-c4[nH]c([C@@H]5CCCN5C(=O)[C@@H](NC(=O)OC)C(C)C)nc4CCC)cc(c1-3)OC2 [Compound 79, dimethyl ((2S,2′S)-((2S,2′S)-((5,10-dihydrochromeno[5,4,3-cde]chromene-2,7-diyl)bis(4-propyl-1H-imidazole-5,2-diyl))bis(pyrrolidine-2,1-diyl))bis(3-methyl-1-oxobutane-1,2-diyl))dicarbamate]",200
5,"CC[C@H](C)[C@H](NC(=O)OC)C(=O)N1[C@H](c2nc(Cl)c(-c3cc4c5c(c3)OCc3cc(-c6[nH]c([C@@H]7C[C@@H]8CCCC[C@@H]8N7C(=O)[C@@H](NC(=O)OC)[C@@H](C)CC)nc6Cl)cc(c3-5)OC4)[nH]2)C[C@@H]2CCCC[C@@H]21 [Compound 39, dimethyl ((2S,2′S,3S,3′S)-((2S,2′S,3aS,3a′S,7aS,7a′S)-((5,10-dihydrochromeno[5,4,3-cde]chromene-2,7-diyl)bis(4-chloro-1H-imidazole-5,2-diyl))bis(octahydro-1H-indole-2,1-diyl))bis(3-methyl-1-oxopentane-1,2-diyl))dicarbamate]",10.9
